In patent US9416129B2, “Tricyclic substituted thiadiazine dioxide compounds as BACE inhibitors, compositions and their use” (Merck Sharp & Dohme Corp., priority 2012, dated 2016):

Key:
[1] = biological target: soluble human BACE1 catalytic domain (Homo sapiens (Human), UniProt P56817); assay: BACE1 HTRF FRET assay; assay type: biochemical; settings: Ki calculated from IC50 using the Cheng-Prusoff equation
From the text: Na^+-Acetate pH 5.0; 1% Brij-35; Glycerol; Dimethyl Sulfoxide (DMSO); Recombinant human soluble BACE1 catalytic domain (>95% pure); APP Swedish mutant peptide substrate (QSY7-APP^swe-Eu): QSY7-[…]-Europium-amide.
A homogeneous time-resolved FRET assay can be used to determine IC50 values for inhibitors of the soluble human BACE1 catalytic domain. This assay monitors the increase of 620 nm fluorescence that resulted from BACE1 cleavage of an APPswedish APP^swe mutant peptide FRET substrate (QSY7-[…]-Europium-amide). This substrate contains an N-terminal QSY7 moiety that serves as a quencher of the C-terminal Europium fluorophore (620 nm Em). In the absence of enzyme activity, 620 nm fluorescence is low in the assay and increased linearly over 3 hours in the presence of uninhibited BACE1 enzyme Inhibition of BACE1 cleavage of the QSY7-APP^swe-Eu substrate by inhibitors is manifested as a suppression of 620 nm fluorescence.
Varying concentrations of inhibitors at 3× the final desired concentration in a volume of 10 ul are preincubated with purified human BACE1 catalytic domain (3 nM in 10 μl) for 30 minutes at 30° C. in reaction buffer containing 20 mM Na-Acetate pH 5.0, 10% glycerol, 0.1% Brij-35 and 7.5% DSMO. Reactions are initiated by addition of 10 μl of 600 nM QSY7-APP^swe-Eu substrate (200 nM final) to give a final reaction volume of […] in a 384 well Nunc HTRF plate. The reactions are incubated at 30° C. for 1.5 hours. The 620 nm fluorescence is then read on a Rubystar HTRF plate reader (BMG Labtechnologies) using a 50 millisecond delay followed by a 400 millisecond acquisition time window. Inhibitor IC50 values are derived from non-linear regression analysis of concentration response curves.

[2] = biological target: human autoBACE-2 (Homo sapiens (Human), UniProt Q9Y5Z0); assay: BACE-2 assay (BACE-HTRF, time-resolved endpoint proteolysis); assay type: biochemical; settings: Ki calculated from IC50 using the Cheng-Prusoff equation; read-out: BACE2 Ki
Method: Inhibitor IC50s at purified human autoBACE-2 are determined in a time-resolved endpoint proteolysis assay that measures hydrolysis of the QSY7-[…]-Eu-amide FRET peptide substrate (BACE-HTRF assay). […] DMSO is present at 5% final concentration in the assay. Following laser excitation of sample wells at 320 nm, the fluorescence signal at 620 nm is collected for 400 ms following a 50 μs delay on a RUBYstar HTRF plate reader (BMG Labtechnologies). Raw RFU data is normalized to maximum (1.0 nM BACE/DMSO) and minimum (no enzyme/DMSO) RFU values. […] The Ki values are calculated from the IC50 using the Cheng-Prusoff equation.

soluble human BACE1 catalytic domain, sequence (P56817 75-416): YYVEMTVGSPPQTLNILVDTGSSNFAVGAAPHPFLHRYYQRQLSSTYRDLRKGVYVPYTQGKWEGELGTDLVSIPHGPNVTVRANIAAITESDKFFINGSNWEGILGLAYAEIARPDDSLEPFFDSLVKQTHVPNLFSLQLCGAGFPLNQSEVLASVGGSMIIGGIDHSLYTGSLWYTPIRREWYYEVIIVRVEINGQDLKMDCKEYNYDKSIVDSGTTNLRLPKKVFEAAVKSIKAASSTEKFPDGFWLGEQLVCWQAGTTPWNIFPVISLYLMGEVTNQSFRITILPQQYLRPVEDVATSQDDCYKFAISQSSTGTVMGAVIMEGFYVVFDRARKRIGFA
human autoBACE-2, sequence (Q9Y5Z0 63-473 limits assumed): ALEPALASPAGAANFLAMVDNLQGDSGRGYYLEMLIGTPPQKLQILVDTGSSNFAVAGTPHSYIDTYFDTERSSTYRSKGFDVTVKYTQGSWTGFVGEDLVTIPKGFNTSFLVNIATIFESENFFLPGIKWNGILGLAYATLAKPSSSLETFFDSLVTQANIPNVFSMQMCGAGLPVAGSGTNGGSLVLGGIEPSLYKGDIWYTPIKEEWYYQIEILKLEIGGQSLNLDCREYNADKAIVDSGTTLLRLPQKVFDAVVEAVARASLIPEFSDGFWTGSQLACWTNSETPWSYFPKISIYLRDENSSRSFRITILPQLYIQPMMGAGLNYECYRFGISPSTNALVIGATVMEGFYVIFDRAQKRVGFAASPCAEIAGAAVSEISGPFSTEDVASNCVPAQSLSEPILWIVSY

| Compound | Ki [1] [nM] | Ki [2] [nM] |
| --- | --- | --- |
| CN1C(=N)N[C@](C)(c2sc(-c3ccc(-c4ccccn4)cc3)cc2Cl)CS1(=O)=O [Example 65] | 3520 | 1610 |
| CN1C(=N)N[C@](C)(c2sc(-c3ccc(N4CCOCC4)nc3)cc2Cl)CS1(=O)=O [Example 66] | 5900 | 1800 |
| CN1C(=N)N[C@](C)(c2sc(-c3ccc(-n4nccn4)cc3)cc2Cl)CS1(=O)=O [Example 67] | 2260 | 555 |
| CN1C(=N)N[C@](C)(c2sc(-c3cccc(-n4ccnc4)n3)cc2Cl)CS1(=O)=O [Example 68] | 429 | 77 |
| CN1C(=N)N[C@](C)(c2sc(-c3ccc(-c4ncco4)cc3)cc2Cl)CS1(=O)=O [Example 69] | 4230 | 337 |
| CN1C(=N)N[C@](C)(c2sc(-c3ccc(-c4nccs4)cc3)cc2Cl)CS1(=O)=O [Example 70] | 827 | 174 |
| CN1C(=N)N[C@](C)(c2sc(-c3ccc(-n4ccnn4)cc3)cc2Cl)CS1(=O)=O [Example 71] | 1600 | 654 |
| Cc1cn(-c2cc(-c3cc(F)c([C@]4(C)CS(=O)(=O)N(C)C(=N)N4)s3)ccn2)cn1 [Example 72] | 67.2 | 26 |
| CN1C(=N)N[C@](C)(c2sc(-c3ccnc(-c4ccncc4)c3)cc2F)CS1(=O)=O [Example 73] | 338 | 123 |
| CN1C(=N)N[C@](C)(c2sc(-c3ccnc(-c4cccnc4)c3)cc2F)CS1(=O)=O [Example 74] | 199 | 122 |
| Cc1cnn(-c2cc(-c3cc(F)c([C@]4(C)CS(=O)(=O)N(C)C(=N)N4)s3)ccn2)c1 [Example 75] | 2780 | 2530 |
| CN1C(=N)N[C@](C)(c2sc(-c3ccnc(-n4ccnc4)c3)cc2F)CS1(=O)=O [Example 76] | 112 | 52 |
| CN1C(=N)N[C@](C)(c2sc(-c3ccnc(-n4cccn4)c3)cc2F)CS1(=O)=O [Example 77] | 162 | 69 |
| CN1C(=N)N[C@](C)(c2sc3c(-c4cnc(C5CC5)nc4)nccc3c2Cl)CS1(=O)=O [Example 78] | 162 | 23 |
| CN1C(=N)N[C@](C)(c2sc3c(-c4ccc(C5CC5)nc4)nccc3c2Cl)CS1(=O)=O [Example 79] | 282 | 22 |
| CN1C(=N)N[C@](C)(c2sc3c(-c4ccc(C5CC(=O)N5)cc4)cccc3c2F)CS1(=O)=O (stereo partly drawn) [Example 81] | 184 | 1720 |
| CN1C(=N)N[C@](C)(c2sc3c(-c4ccc(-c5ccc(F)cc5F)nc4)cccc3c2F)CS1(=O)=O [Example 82] | 93 | 61 |
| CN1C(=N)N[C@](C)(c2sc3c(-c4ccc(-n5ccnn5)cc4)cccc3c2F)CS1(=O)=O [Example 83] | 19 | 148 |
| CN1C(=N)N[C@](C)(c2sc3c(-c4ccc(-c5ccncc5)cc4)cccc3c2F)CS1(=O)=O [Example 84] | 351 | 764 |
| CN1C(=N)N[C@](C)(c2sc3c(-c4ccc(N5CCS(=O)(=O)CC5)cc4)cccc3c2F)CS1(=O)=O [Example 85] | 6520 | 4690 |
| CN1C(=N)N[C@](C)(c2sc3c(-c4ccc(-c5nccn5C)cc4)cccc3c2F)CS1(=O)=O [Example 86] | 5620 | 3300 |
| CN1C(=N)N[C@](C)(c2sc3c(-c4ccc(-n5cccn5)nc4)cccc3c2F)CS1(=O)=O [Example 87] | 10 | 31 |
| Cc1cnc(-c2ccc(-c3cccc4c(F)c([C@]5(C)CS(=O)(=O)N(C)C(=N)N5)sc34)cc2)nc1 [Example 88] | 9140 | 3840 |

| Compound | Ki [1] [nM] | Ki [2] [nM] |
| --- | --- | --- |
| CN1C(=N)N[C@](C)(c2sc3c(-c4ccc(-n5cccn5)cc4)cccc3c2F)CS1(=O)=O [Example 89] | 37 | 68 |
| CN1C(=N)N[C@](C)(c2sc3c(-c4ccc(-c5ncco5)cc4)cccc3c2F)CS1(=O)=O [Example 90] | 104 | 214 |
| CN1C(=N)N[C@](C)(c2sc3c(-c4ccc(-c5nccs5)cc4)cccc3c2F)CS1(=O)=O [Example 91] | 797 | 1350 |
| CN1C(=N)N[C@](C)(c2sc3c(-c4ccc(-n5nccn5)cc4)cccc3c2F)CS1(=O)=O [Example 92] | 1660 | 1660 |
| CN1CCN(c2ccc(-c3cccc4c(F)c([C@]5(C)CS(=O)(=O)N(C)C(=N)N5)sc34)cn2)CC1 [Example 93] | 3840 | 2660 |
| CN1C(=N)N[C@](C)(c2sc3c(-c4ccc(N5CCOCC5)nc4)cccc3c2F)CS1(=O)=O [Example 94] | 1500 | 9520 |
| CN1CCN(c2ccc(-c3cccc4c(F)c([C@]5(C)CS(=O)(=O)N(C)C(=N)N5)sc34)cc2)CC1 [Example 95] | 9760 | 2030 |
| CN1C(=N)N[C@](C)(c2sc3c(-c4ccc(C5CC5)nc4)cccc3c2F)CS1(=O)=O [Example 96] | 327 | 9520 |
| CN1C(=N)N[C@](C)(c2sc3c(-c4cnc(-n5cccn5)nc4)nccc3c2Cl)CS1(=O)=O [Example 97] | 61.2 | 64 |
| CN1C(=N)N[C@](C)(c2sc3c(-c4ccc(-c5cc(C(F)(F)F)n[nH]5)cc4)nccc3c2Cl)CS1(=O)=O [Example 98] | 425 | 6.7 |
| CN1C(=N)N[C@](C)(c2sc3c(-c4ccc(-n5nccn5)cc4)nccc3c2Cl)CS1(=O)=O [Example 99] | 224 | 855 |
| CN1C(=N)N[C@](C)(c2sc3c(-c4ccc(-c5ncco5)cc4)nccc3c2Cl)CS1(=O)=O [Example 100] | 116 | 224 |
| CN1C(=N)N[C@](C)(c2sc3c(-c4ccc(C5CC(=O)N5)cc4)nccc3c2Cl)CS1(=O)=O (stereo partly drawn) [Example 101] | 959 | 116 |
| CN1C(=N)N[C@](C)(c2sc3c(-c4ccc(-n5cccn5)cc4)nccc3c2Cl)CS1(=O)=O [Example 102] | 29.9 | 959 |
| CN1C(=N)N[C@](C)(c2sc3c(-c4ccc(-n5ccnn5)cc4)nccc3c2Cl)CS1(=O)=O [Example 104] | 86.1 | 36 |
| CN1C(=N)N[C@](C)(c2sc3c(-c4ccc(-c5nccn5C)cc4)nccc3c2Cl)CS1(=O)=O [Example 105] | 1640 | 86 |
| CN1C(=N)N[C@](C)(c2sc3c(-c4ccc(-c5nccs5)cc4)nccc3c2Cl)CS1(=O)=O [Example 106] | 270 | 1640 |
| CN1C(=N)N[C@](C)(c2sc3c(-c4ccc(-c5ccoc5)cc4F)nccc3c2Cl)CS1(=O)=O [Example 107] | 19.7 | 270 |
| CN1C(=N)N[C@](C)(c2sc3c(-c4ccc(-c5cnco5)cc4F)nccc3c2Cl)CS1(=O)=O [Example 108] | 35.2 | 19 |
| Cc1occc1-c1ccc(-c2nccc3c(Cl)c([C@]4(C)CS(=O)(=O)N(C)C(=N)N4)sc23)c(F)c1 [Example 109] | 525 | 87 |
| Cc1cocc1-c1ccc(-c2nccc3c(Cl)c([C@]4(C)CS(=O)(=O)N(C)C(=N)N4)sc23)c(F)c1 [Example 110] | 112 | 444 |
| CN1C(=N)N[C@](C)(c2sc3c(-c4ccc(-c5ccnn5C)cc4F)nccc3c2Cl)CS1(=O)=O [Example 111] | 197 | 27 |
